From patent publication EP0942911B1, “BENZOPYRANOPYRROLE AND BENZOPYRANOPYRIDINE ALPHA-1 ADRENERGIC COMPOUNDS” (Abbott Laboratories, priority 1996, dated 1998)
Where a name gives a salt, the structure may show the parent alone. Read-outs that look alike come from different tables or passages of the source.

Tests used:
Assay in all cases: biochemical
[1] = target: T1, α-1A adrenoreceptor (rat submaxillary gland) (Rattus norvegicus, UniProt P43140); assay type: binding
T1 sequence (P43140 1-466): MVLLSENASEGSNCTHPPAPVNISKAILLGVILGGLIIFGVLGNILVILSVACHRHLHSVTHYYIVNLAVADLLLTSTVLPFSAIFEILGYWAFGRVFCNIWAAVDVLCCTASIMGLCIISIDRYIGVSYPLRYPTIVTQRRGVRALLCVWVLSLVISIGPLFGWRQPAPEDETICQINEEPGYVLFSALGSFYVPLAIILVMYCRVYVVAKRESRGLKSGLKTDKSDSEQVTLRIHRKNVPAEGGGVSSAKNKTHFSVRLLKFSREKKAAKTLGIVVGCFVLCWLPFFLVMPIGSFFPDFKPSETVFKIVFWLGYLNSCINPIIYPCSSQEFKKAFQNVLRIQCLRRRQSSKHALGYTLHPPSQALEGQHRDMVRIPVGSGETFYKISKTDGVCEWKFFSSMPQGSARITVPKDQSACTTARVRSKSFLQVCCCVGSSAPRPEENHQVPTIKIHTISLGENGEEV
Method in brief: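 Radioligand binding to α-1A sites in membrane homogenates of rat submaxillary gland, run after Greengrass and Bremner. Bound radioactivity counted by liquid scintillation.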

α-1a adrenoreceptor = target: T2, α-1a adrenoreceptor (Bos taurus, UniProt P18130); assay type: binding, bovine
T2 sequence (P18130 1-466): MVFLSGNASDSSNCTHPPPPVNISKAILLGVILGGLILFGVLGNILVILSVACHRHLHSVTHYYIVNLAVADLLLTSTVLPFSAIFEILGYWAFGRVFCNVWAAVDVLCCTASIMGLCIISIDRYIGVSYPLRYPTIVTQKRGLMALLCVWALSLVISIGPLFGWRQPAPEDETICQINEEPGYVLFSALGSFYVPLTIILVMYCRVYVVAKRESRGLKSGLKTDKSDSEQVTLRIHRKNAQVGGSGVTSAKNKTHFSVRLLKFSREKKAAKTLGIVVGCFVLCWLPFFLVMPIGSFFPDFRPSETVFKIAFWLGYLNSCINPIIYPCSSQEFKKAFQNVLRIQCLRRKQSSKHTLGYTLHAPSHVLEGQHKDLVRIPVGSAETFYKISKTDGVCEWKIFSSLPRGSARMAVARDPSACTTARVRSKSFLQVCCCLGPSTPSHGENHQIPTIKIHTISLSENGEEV
Method in brief: (§1)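 LTK mouse fibroblasts stably transfected with α-1a, α-1b or α-1d cDNA → roller-bottle culture 5 days at 37 °C → membranes in 50 mM Tris-HCl, stored at -70 °C → radioligand binding → scintillation counting.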

α-1d adrenoreceptor = target: T3, α-1d adrenoreceptor (Rattus norvegicus, UniProt P23944); assay type: binding
T3 sequence (P23944 1-561): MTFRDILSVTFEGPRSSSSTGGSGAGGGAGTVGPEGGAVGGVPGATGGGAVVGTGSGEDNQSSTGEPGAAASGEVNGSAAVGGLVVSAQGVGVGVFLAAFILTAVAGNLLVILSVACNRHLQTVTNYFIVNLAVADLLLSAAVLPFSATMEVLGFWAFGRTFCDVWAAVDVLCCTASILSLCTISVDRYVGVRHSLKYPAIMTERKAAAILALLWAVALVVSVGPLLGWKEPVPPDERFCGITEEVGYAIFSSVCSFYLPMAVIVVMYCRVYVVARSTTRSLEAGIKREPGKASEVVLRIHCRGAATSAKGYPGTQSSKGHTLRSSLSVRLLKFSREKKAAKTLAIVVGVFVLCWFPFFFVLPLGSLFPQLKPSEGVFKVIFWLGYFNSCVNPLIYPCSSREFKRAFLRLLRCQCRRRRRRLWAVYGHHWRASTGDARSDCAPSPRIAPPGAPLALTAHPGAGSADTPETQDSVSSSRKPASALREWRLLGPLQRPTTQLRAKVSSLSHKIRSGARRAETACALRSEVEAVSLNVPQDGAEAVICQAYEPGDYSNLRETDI
Method in brief: as §1

[2] = [3H]-prazosin radioligand, rat submaxillary gland membranes, read-out: Radioligand Binding (Ki, nM) 1A (Rat)
[3] = [3H]-prazosin radioligand, cloned receptor in LTK cell membranes, read-out: Radioligand Binding (Ki, nM) 1a (Bovine)
[4] = [3H]-prazosin radioligand, cloned receptor in LTK cell membranes, read-out: Radioligand Binding (Ki, nM) 1d (Rat)
[5] = read-out: Radioligand Binding (Ki, nM) 1A (Rat)
[6] = read-out: Radioligand Binding (Ki, nM) 1a (Bovine)
[7] = read-out: Radioligand Binding (Ki, nM) 1d (Rat)

Q: For `COc1cccc2c1[C@@H]1CN(CCCCn3c(=O)[nH]c4c(sc5ccnc(OC)c54)c3=O)C[C@H]1CO2` [Example 49, 3-[4-((3aS,9bR)-trans-9-Methoxy-1,2,3,3a,4,9b-hexahydro-[1]-benzopyrano[3,4-c]pyrrol-2-yl)butyl]-9-methoxy-pyrido[3',4':4,5]thieno[3,2-d]pyrimidine-2,4(1H,3H)-dione fumarate], which Ki [1, 2] is on record?
A: 0.037 nM

Q: And the Ki (α-1a adrenoreceptor; [3])?
A: 0.007 nM

Q: What about the Ki (α-1d adrenoreceptor; [4]) of the same compound?
A: 0.019 nM

Q: Which results are given for `COc1cccc2c1[C@@H]1CN(CCn3c(=O)[nH]c4c(sc5ccccc54)c3=O)C[C@@H]1CO2.Cl` (racemic) [Example 65, 3-[2-((±)-cis-9-Methoxy-1,2,3,3a,4,9b-hexahydro-[1]-benzopyrano[3,4-c]pyrrol-2-yl)ethyl]-[1]benzthieno[3,2-d]pyrimidine-2,4(1H,3H)-dione hydrochloride]?
A: Ki [1, 5]: 15 nM; Ki (α-1a adrenoreceptor; [6]): 1.82 nM; Ki (α-1d adrenoreceptor; [7]): 25 nM

Q: Which results are given for `COc1cccc2c1[C@@H]1CN(CCCCn3c(=O)[nH]c4c(sc5c(Cl)nccc54)c3=O)C[C@@H]1CO2` [Example 53, 3-[4-((3aR,9bR)-cis-9-Methoxy-1,2,3,3a,4,9b-hexahydro-[1]-benzopyrano[3,4-c]pyrrol-2-yl)butyl]-6-chloro-pyrido[4',3':4,5]thieno[3,2-d]pyrimidine-2,4(1H,3H)-dione]?
A: Ki [1, 2]: 0.872 nM; Ki (α-1a adrenoreceptor; [3]): 0.037 nM; Ki (α-1d adrenoreceptor; [4]): 0.664 nM

Q: How did the Ki [1, 2] turn out when `COc1cccc2c1[C@@H]1CN(CCCCn3c(=O)[nH]c4c(sc5ccc(Cl)nc54)c3=O)C[C@H]1CO2` [Example 25, 3-[4-((3aS,9bR)-trans-9-Methoxy-1,2,3,3a,4,9b-hexahydro-[1]-benzopyrano[3,4-c]pyrrol-2-yl)butyl]-8-chloro-pyrido[2',3':4,5]thieno[3,2-d]pyrimidine-2,4(1H,3H)-dione dihydrochloride] was run?
A: 0.061 nM

Q: And the Ki (α-1a adrenoreceptor; [3])?
A: 0.03 nM

Q: And the Ki (α-1d adrenoreceptor; [4])?
A: 0.039 nM

Q: `COc1cccc2c1[C@@H]1CN(CCCCn3c(=O)[nH]c4c(sc5ncccc54)c3=O)C[C@@H]1CO2` [Example 34, 3-[4-((3aR,9bR)-cis-9-Methoxy-1,2,3,3a,4,9b-hexahydro-[1]-benzopyrano[3,4-c]pyrrol-2-yl)butyl]-pyrido[3',2':4,5]thieno[3,2-d]pyrimidine-2,4(1H,3H)-dione hydrochloride] was tested. Which Ki [1, 2] did it give?
A: 0.474 nM

Q: And the Ki (α-1a adrenoreceptor; [3])?
A: 0.079 nM

Q: What about the Ki (α-1d adrenoreceptor; [4]) of the same compound?
A: 0.339 nM

Q: Which Ki [1, 2] does the source give for `COc1cccc2c1[C@@H]1CN(CCCCn3c(=O)[nH]c4c(sc5ccncc54)c3=O)C[C@H]1CO2` [Example 41, 3-[4-((3aS,9bR)-trans-9-Methoxy-1,2,3,3a,4,9b-hexahydro-[1]-benzopyrano[3,4-c]pyrrol-2-yl)butyl]-pyrido[3',4':4,5]thieno[3,2-d]pyrimidine-2,4(1H,3H)-dione dihydrochloride] here?
A: 0.069 nM

Q: What about the Ki (α-1a adrenoreceptor; [3]) of the same compound?
A: 0.031 nM

Q: And the Ki (α-1d adrenoreceptor; [4])?
A: 0.041 nM

Q: Which results are given for `COc1cccc2c1[C@@H]1CCN(CCCCn3c(=O)[nH]c4c(sc5ncccc54)c3=O)C[C@H]1CO2` (racemic) [Example 85, 3-[4-((±)-trans-10-Methoxy-1,3,4,4a,5,10b-hexahydro-2H-[1]-benzopyrano[3,4-c]pyrido-3-yl)butyl]-pyrido[3',2':4,5]thieno[3,2-d]pyrimidine-2,4(1H,3H)-dione dihydrochloride]?
A: Ki [1, 2]: 0.419 nM; Ki (α-1a adrenoreceptor; [3]): 0.336 nM; Ki (α-1d adrenoreceptor; [4]): 0.566 nM

Q: `COc1cccc2c1[C@@H]1CN(CCCCn3c(=O)[nH]c4c(sc5nc(Cl)ccc54)c3=O)C[C@H]1CO2` [Example 47, 3-[4-((3aS,9bR)-trans-9-Methoxy-1,2,3,3a,4,9b-hexahydro-[1]-benzopyrano[3,4-c]pyrrol-2-yl)butyl]-7-chloro-pyrido[3',2':4,5]thieno[3,2-d]pyrimidine-2,4(1H,3H)-dione hydrochloride] was tested. Which Ki [1, 2] did it give?
A: 0.245 nM

Q: What about the Ki (α-1a adrenoreceptor; [3]) of the same compound?
A: 0.038 nM

Q: What about the Ki (α-1d adrenoreceptor; [4]) of the same compound?
A: 0.189 nM

Q: With `COc1cc2nc(N3CCN(C(=O)C4COc5ccccc5O4)CC3)nc(N)c2cc1OC` (stereo not drawn) [Doxazosin, doxazosin, reference compound] as the compound, how does the Ki [1] read?
A: 0.423 nM

Q: And the Ki (α-1a adrenoreceptor)?
A: 0.912 nM

Q: What about the Ki (α-1d adrenoreceptor) of the same compound?
A: 0.231 nM

Q: How did the Ki [1, 2] turn out when `COc1cccc2c1[C@@H]1CN(CCCCn3c(=O)[nH]c4c(sc5ncc(-c6ccccc6)nc54)c3=O)C[C@@H]1CO2` [Example 39, 3-[4-((3aR,9bR)-cis-9-Methoxy-1,2,3,3a,4,9b-hexahydro-[1]-benzopyrano[3,4-c]pyrrol-2-yl)butyl]-8-phenyl-pyrazino[2',3':4,5]thieno[3,2-d]pyrimidine-2,4(1H,3H)-dione hydrochloride] was run?
A: 0.343 nM

Q: What about the Ki (α-1a adrenoreceptor; [3]) of the same compound?
A: 0.226 nM

Q: And the Ki (α-1d adrenoreceptor; [4])?
A: 2.15 nM

Q: `COc1cccc2c1[C@H]1CN(CCCCn3c(=O)[nH]c4c(sc5nccnc54)c3=O)C[C@@H]1CO2.Cl.Cl` (racemic) [Example 74, 3-[4-((±)-trans-9-Methoxy-1,2,3,3a,4,9b-hexahydro-[1]-benzopyrano[3,4-c]pyrrol-2-yl)butyl]-pyrazino[2',3':4,5]thieno[3,2-d]pyrimidine-2,4(1H,3H)-dione dihydrochloride] was tested. Which Ki [1, 5] did it give?
A: 3.29 nM

Q: And the Ki (α-1a adrenoreceptor; [6])?
A: 1.53 nM

Q: And the Ki (α-1d adrenoreceptor; [7])?
A: 2.94 nM

Q: For `COc1cc2[nH]c(=O)n(CCCCN3C[C@@H]4COc5ccccc5[C@@H]4C3)c(=O)c2cc1OC` (racemic) [Example 81, 3-[4-((±1-cis-1,2,3,3a,4,9b-hexahydro-[1]-benzopyrano[3,4-c]pyrrol-2-yl)butyl]-6,7-dimethoxy-quinazoline-2,4(1H,3H)-dione hydrochloride], which Ki [1, 2] is on record?
A: 0.045 nM

Q: What about the Ki (α-1a adrenoreceptor; [3]) of the same compound?
A: 0.052 nM

Q: And the Ki (α-1d adrenoreceptor; [4])?
A: 0.108 nM

Q: How did the Ki [1, 2] turn out when `COc1cccc2c1[C@@H]1CN(CCCCn3c(=O)[nH]c4c(sc5ccnc(Cl)c54)c3=O)C[C@@H]1CO2` [Example 48, 3-[4-((3aR,9bR)-cis-9-Methoxy-1,2,3,3a,4,9b-hexahydro-[1]-benzopyrano[3,4-c]pyrrol-2-yl)butyl]-9-chloro-pyrido[3',4';4,5]thieno[3,2-d]pyrimidine-2,4(1H,3H)-dione hydrochloride] was run?
A: 0.475 nM

Q: What about the Ki (α-1a adrenoreceptor; [3]) of the same compound?
A: 0.048 nM

Q: And the Ki (α-1d adrenoreceptor; [4])?
A: 0.467 nM

Q: Which results are given for `COc1cccc2c1[C@@H]1CN(CCCCn3c(=O)[nH]c4c(sc5ccncc54)c3=O)C[C@@H]1CO2` [Example 28, 3-[4-((3aR,9bR)-cis-9-Methoxy-1,2,3,3a,4,9b-hexahydro-[1]-benzopyrano[3,4-c]pyrrol-2-yl)butyl]-pyrido[3',4':4,5]thieno[3,2-d]pyrimidine-2,4(1H,3H)-dione dihydrochloride]?
A: Ki [1, 2]: 0.273 nM; Ki (α-1a adrenoreceptor; [3]): 0.092 nM; Ki (α-1d adrenoreceptor; [4]): 0.195 nM

Q: Which Ki [1, 2] does the source give for `COc1cccc2c1[C@H]1CN(CCCCn3c(=O)[nH]c4c(sc5cccnc54)c3=O)C[C@H]1CO2` [Example 2, 3-[4-((3aS,9bS)-cis-9-Methoxy-1,2,3,3a,4,9b-hexahydro-[1]-benzopyrano[3,4-c]pyrrol-2-yl)butyl]-pyrido[2',3':4,5]thieno[3,2-d]pyrimidine-2,4(1H,3H)-dione hydrochloride] here?
A: 0.95 nM

Q: And the Ki (α-1a adrenoreceptor; [3])?
A: 0.193 nM

Q: What about the Ki (α-1d adrenoreceptor; [4]) of the same compound?
A: 2.72 nM

Q: Which Ki [1, 2] does the source give for `COc1cccc2c1[C@@H]1CN(CCCCn3c(=O)[nH]c4c(sc5cccnc54)c3=O)C[C@H]1CO2` [Example 3, 3-[4-((3aS,9bR)-trans-9-Methoxy-1,2,3,3a,4,9b-hexahydro-[1]-benzopyrano[3,4-c]pyrrol-2-yl)butyl]-pyrido[2',3':4,5]thieno[3,2-d]pyrimidine-2,4(1H,3H)-dione hydrochloride] here?
A: 0.026 nM

Q: What about the Ki (α-1a adrenoreceptor; [3]) of the same compound?
A: 0.02 nM

Q: And the Ki (α-1d adrenoreceptor; [4])?
A: 0.041 nM
